# From paper PMC7497641, “Neurotropic activity and safety of methylene-cycloalkylacetate (MCA) derivative 3-(3-allyl-2-methylenecyclohexyl) propanoic acid” (ACS Chemical Neuroscience, 2020)
# Experiments:
# [1] = target: T1, Dopamine transporter (DAT) (Homo sapiens, UniProt Q01959); assay: SAFETYscan Transporter assay; type: cell-based
# T1 construct: host or cells: unnamed DiscoverX cell line
# [2] = Blood hematology and biochemistry after intravenous injection; type: in vivo; settings: 250 mg/kg IV; 24 h from injection
# [3] = target: Muscarinic acetylcholine Receptor M3 (CHRM3) (Homo sapiens, UniProt P20309); assay: cell-based; settings: Calcium Flux, read-out: RC50 (the source's name)
# [4] = target: T2, Opioid Receptor Delta 1 (OPRD1) (Homo sapiens, UniProt P41143); assay: SAFETYscan GPCR cAMP; type: cell-based
# T2 construct: host or cells: cAMP Hunter cell lines
# [5] = target: T3, Cannabinoid Receptor 1 (CNR1) (Homo sapiens, UniProt P21554); assay: SAFETYscan GPCR cAMP; type: cell-based
# T3 construct: host or cells: cAMP Hunter cell lines
# [6] = target: 5-Hydroxy tryptamine (Serotonin) Receptor 2B (HTR2B) (Homo sapiens, UniProt P41595); assay: SAFETYscan GPCR Calcium Flux; type: cell-based
# [7] = target: T4, Acetylcholinesterase (AChE) (Homo sapiens, UniProt P22303); assay: SAFETYscan Enzymatic assay; type: biochemical
# T4 construct: purchased R&D Systems
# [8] = target: T5, Opioid Receptor Mu 1 (OPRM1) (Homo sapiens, UniProt P35372); assay: cell-based; settings: cAMP, read-out: RC50 (the source's name)
# T5 construct: host or cells: cAMP Hunter cell lines
# [9] = test system: dorsal root ganglion (DRG) sensory neurons; assay: DRG neurite outgrowth assay; type: cell-based, mice; settings: HU-MCA-13 5 μM, DRG explants, 5 days
# Excerpt: In the second step, we study the effect of HU-MCA-13 on ex-vivo sensory neuronal cultures obtained from dissociated dorsal root ganglia (DRG), a model in which the neurons tend to extend neurites in culture at a high rate, and all neurite outgrowths are axons, as confirmed by immune staining for cytoskeletal-specific proteins.[27] […] By contrast, NGF induced a strong, 3.5-fold increase in neurite outgrowth to a value of 700 μm (Figure 1 and Figure 3B) and a ratio of 8.5 between the area covered by neurites and that covered by the DRG ganglia (Figure 3C). Similarly, HU-MCA-13 induced a 2.5 fold increase in neurite outgrowth to a value of about 500 μm (Figure 1 and Figure 3B) and a ratio of 5.4 between the area covered by neurites and that covered by the DRG ganglia (Figure 3C). […] These experiments extend the neurotropic effect of MCA-13 observed with PC12 dopaminergic neuronal cultures to DRG sensory neurons.
# To perform these experiments, 10 DRGs were excised under sterile conditions and transferred to Dulbecco’s Modified Eagle Medium (DMEM) containing 0.25% Type IV collagenase in at 37 °C for 45 min, followed by a 20 min incubation with 0.025% trypsin in DMEM, to digest the associated connective tissue surrounding the neurons. After plating the ganglia onto collagen (50 μg/mL)/laminin mixture (5 μg/mL)-coated tissue culture wells for 24 h, DRG neurons were cultured for additional 1–7 days in fresh Neurobasal A/B27 medium[27] containing either 50 ng/mL NGF (positive control), medium containing 1% DMSO (negative control) or 5 μM MCA-13. The living cultures were photographed and thereafter, the ganglia were immunostained for β tubulin III and again photographed using a fluorescent microscope. A researcher blinded to the experimental conditions performed image analysis, and the neurite outgrowth length (in micrometers) was measured.[50]
# [10] = target: T6, 5-Hydroxy tryptamine (Serotonin) Receptor 1A (HTR1A) (Homo sapiens, UniProt P08908); assay: SAFETYscan GPCR cAMP; type: cell-based
# T6 construct: host or cells: cAMP Hunter cell lines
# T6 sequence (P08908 whole entry): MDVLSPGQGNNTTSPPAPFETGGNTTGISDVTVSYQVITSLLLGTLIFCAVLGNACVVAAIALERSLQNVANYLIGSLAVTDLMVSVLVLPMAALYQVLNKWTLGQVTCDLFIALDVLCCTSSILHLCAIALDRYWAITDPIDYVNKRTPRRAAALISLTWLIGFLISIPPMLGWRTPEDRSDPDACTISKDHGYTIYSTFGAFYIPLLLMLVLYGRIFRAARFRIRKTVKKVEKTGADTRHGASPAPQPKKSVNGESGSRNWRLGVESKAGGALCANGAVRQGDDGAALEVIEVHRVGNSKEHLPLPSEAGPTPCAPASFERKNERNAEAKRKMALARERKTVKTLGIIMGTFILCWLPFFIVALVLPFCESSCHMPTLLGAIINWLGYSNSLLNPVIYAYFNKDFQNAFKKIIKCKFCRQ
# T3 sequence (P21554 whole entry): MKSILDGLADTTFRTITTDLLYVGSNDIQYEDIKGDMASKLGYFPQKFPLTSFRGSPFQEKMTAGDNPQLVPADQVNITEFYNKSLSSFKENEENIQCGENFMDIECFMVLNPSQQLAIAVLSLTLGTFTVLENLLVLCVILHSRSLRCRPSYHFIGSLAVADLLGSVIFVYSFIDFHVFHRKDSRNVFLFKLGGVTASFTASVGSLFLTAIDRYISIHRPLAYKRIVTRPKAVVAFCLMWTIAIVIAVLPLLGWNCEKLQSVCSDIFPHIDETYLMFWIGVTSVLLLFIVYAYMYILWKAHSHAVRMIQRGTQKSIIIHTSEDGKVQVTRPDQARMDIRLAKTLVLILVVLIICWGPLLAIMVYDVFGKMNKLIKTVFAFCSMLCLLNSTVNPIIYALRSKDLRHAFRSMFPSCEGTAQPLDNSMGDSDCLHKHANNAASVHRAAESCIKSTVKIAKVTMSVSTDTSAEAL
# T4 sequence (P22303 32-614): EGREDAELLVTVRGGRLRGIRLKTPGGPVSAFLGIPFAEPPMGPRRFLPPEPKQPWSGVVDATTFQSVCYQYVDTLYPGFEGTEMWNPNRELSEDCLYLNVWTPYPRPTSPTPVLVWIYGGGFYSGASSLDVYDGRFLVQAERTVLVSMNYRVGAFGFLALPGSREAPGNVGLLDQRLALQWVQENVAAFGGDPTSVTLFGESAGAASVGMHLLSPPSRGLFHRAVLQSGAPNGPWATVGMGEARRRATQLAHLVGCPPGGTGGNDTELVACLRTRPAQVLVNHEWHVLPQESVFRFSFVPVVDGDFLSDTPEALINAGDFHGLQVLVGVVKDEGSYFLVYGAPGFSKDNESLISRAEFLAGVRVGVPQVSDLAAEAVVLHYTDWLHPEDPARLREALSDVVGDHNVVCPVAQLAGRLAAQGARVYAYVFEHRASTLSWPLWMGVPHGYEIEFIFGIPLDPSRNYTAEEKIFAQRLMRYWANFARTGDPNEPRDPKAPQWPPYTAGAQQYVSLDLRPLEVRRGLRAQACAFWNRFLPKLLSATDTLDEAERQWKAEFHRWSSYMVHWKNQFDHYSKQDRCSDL
# Sequence of Muscarinic acetylcholine Receptor M3 (CHRM3) (P20309 whole entry): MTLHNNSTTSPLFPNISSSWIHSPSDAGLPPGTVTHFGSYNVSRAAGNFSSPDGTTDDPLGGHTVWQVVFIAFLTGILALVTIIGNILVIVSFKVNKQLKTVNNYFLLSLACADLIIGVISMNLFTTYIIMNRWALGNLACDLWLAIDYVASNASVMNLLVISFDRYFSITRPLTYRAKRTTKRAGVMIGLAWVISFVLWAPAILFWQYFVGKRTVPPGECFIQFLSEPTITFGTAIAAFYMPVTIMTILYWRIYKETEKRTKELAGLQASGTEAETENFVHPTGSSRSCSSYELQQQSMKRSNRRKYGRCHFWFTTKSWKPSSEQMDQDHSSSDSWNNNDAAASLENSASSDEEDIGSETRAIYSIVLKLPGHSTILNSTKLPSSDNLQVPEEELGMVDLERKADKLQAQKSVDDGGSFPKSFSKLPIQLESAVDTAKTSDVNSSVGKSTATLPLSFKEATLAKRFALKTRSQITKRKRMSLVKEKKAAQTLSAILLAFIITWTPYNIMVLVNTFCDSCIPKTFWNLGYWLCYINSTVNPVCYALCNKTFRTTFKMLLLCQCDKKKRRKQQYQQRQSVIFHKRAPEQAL
# T2 sequence (P41143 whole entry): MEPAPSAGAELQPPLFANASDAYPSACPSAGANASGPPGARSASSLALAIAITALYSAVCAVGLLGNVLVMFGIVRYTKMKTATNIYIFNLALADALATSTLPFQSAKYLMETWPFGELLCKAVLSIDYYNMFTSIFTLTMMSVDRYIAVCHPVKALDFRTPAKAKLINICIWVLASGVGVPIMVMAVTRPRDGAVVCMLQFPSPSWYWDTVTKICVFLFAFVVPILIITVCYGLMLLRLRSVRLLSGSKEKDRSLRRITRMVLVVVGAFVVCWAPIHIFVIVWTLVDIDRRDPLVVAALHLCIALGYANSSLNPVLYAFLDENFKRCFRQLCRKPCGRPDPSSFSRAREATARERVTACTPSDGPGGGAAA
# T5 sequence (P35372 whole entry): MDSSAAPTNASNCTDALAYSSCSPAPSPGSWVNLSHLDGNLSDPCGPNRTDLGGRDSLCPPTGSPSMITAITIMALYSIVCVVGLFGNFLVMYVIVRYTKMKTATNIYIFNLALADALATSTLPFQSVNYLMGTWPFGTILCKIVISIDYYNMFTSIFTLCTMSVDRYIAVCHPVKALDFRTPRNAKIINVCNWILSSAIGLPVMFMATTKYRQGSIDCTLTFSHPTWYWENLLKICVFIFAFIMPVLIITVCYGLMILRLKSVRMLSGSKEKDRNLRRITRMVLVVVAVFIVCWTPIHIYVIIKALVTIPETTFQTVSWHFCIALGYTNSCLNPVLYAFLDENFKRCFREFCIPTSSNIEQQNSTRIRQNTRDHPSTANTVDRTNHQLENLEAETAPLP
# T1 sequence (Q01959 whole entry): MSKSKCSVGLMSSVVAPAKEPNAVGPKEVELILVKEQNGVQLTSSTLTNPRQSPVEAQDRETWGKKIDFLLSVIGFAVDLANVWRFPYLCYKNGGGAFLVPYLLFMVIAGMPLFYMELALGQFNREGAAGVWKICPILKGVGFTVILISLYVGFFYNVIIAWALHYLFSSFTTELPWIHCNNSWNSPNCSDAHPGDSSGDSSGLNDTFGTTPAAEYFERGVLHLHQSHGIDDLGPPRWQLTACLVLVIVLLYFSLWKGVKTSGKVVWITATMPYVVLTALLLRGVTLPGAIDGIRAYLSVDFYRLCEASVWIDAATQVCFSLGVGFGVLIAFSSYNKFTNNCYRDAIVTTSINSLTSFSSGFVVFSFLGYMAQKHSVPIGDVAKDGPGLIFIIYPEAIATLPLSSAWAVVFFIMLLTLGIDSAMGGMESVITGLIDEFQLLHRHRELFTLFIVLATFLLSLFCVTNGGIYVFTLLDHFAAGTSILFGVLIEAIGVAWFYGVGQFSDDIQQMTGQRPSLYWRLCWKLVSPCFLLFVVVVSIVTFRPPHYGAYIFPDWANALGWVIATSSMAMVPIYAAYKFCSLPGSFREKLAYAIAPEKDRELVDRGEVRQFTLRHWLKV
# Sequence of 5-Hydroxy tryptamine (Serotonin) Receptor 2B (HTR2B) (P41595 whole entry): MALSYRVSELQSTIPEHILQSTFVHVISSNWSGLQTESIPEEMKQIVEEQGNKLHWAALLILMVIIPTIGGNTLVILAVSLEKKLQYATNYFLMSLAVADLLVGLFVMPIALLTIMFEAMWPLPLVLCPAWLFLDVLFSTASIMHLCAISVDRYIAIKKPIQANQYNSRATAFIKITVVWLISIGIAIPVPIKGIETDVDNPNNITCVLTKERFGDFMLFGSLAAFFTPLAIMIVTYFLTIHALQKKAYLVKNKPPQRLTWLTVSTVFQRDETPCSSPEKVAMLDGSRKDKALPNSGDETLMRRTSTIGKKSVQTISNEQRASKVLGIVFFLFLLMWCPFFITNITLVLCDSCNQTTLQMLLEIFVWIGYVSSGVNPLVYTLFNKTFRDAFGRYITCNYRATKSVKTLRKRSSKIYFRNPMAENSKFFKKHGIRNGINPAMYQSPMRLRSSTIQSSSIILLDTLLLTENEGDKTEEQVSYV
compound,measurement,setting,value
"C=CCC1CCCC(CCC(=O)O)C1=C (stereo not drawn) [HU-MCA-13, 3-(3-allyl-2-methylenecyclohexyl)propanoic acid]",IC50,[1],> 10 µM
same,inhibition at 10 µM,"[1]; 10 μM, Blocker, Transporter, read-out: MCA-13 Max. Responce",0%
same,bilirubin concentration versus DMSO,[2],small significant increase
same,blood count versus DMSO,[2],No difference
same,coagulation parameters versus DMSO,[2],No difference
same,electrolytes versus DMSO,[2],No difference
same,kidney and liver parameters versus DMSO,[2],lack of differences
same,EC50,[3]; Agonist,> 10 µM
same,IC50,[3]; Antagonist,> 10 µM
same,EC50,[4],> 10 µM
same,IC50,[4],> 10 µM
same,EC50,[5],> 10 µM
same,IC50,[5],> 10 µM
same,EC50,[6],> 10 µM
same,IC50,[6],> 10 µM
same,IC50,[7],> 10 µM
same,inhibition at 10 µM,"[7]; 10 μM, Inhibitor, Enzymatic, read-out: MCA-13 Max. Responce",4.27%
same,EC50,[8]; Agonist,> 10 µM
same,IC50,[8]; Antagonist,> 10 µM
same,neurite outgrowth length,[9],about 500 μm
same,ratio between the area covered by neurites and that covered by the DRG ganglia,[9],5.4
same,fold increase in neurite outgrowth,[9]; versus control medium,2.5 fold
same,EC50,[10],> 10 µM
same,IC50,[10],> 10 µM
